Data from patent US10966995B2, “Use of secoisolariciresinol diglucosides (SDGS) and related compounds for protection against radiation and chemical damage” (THE TRUSTEES OF THE UNIVERSITY OF PENNSYLVANIA, priority 2014, dated 2021).

Tests used:
[1] = tested on: mouse peritoneal macrophages; assay: Asbestos-exposed peritoneal macrophages: oxidative/nitrosative stress and cytokine secretion; type: cell-based; conditions: 20 μg/cm^2 asbestos; 25 and 50 μM SDG 3-8 hours post exposure; p<0.05
Method: To test the hypothesis that the flaxseed lignan SDG will decrease asbestos-induced inflammation, and oxidative and nitrosative stress, mouse peritoneal macrophages were exposed to varying concentrations of crocidolite asbestos fibers ([…]). At variable times post asbestos exposure (3, 4, 6, and 8 hours), cells were incubated with SDG (50 μM) and supernatants collected 24 hours later to detect inflammatory cytokine secretion and nitrosative/oxidative stress (FIG. 49).
(§1) SDG given to macrophages several hours post exposure to asbestos decreases oxidative stress (FIGS. 52A-52B). Female C57/Bl6 mice were injected with 2 mL of thioglycollate and peritoneal macrophages harvested after 3 days. 2 million cells per well were plated in a 6 well plate and exposed to 20 μg/cm^2 asbestos. Cells were treated with 25 or 50 μM SDG (synthetic SDG) 3, 4, 6, or 8 hours post-asbestos exposure. Cells were harvested 24 hours post-asbestos exposure. Analysis performed on frozen supernatant samples.
as §1, with “Given” for “given”, “Macrophages Several Hours Post Exposure to Asbestos Decreases Nitrosative Stress (FIGS. 53A-53B). To evaluate of SDG in blunting nitrosative stress in cells” for “macrophages several hours”, “post” for “post exposure to”, “exposure, female” for “decreases oxidative stress (FIGS. 52A-52B). Female”
(§2) SDG Given to Macrophages Several Hours Post Exposure to Asbestos Decreases inflammatory cytokine secretion (IL-1β) (FIGS. 54A-54B). To evaluate SDG in blunting inflammatory cytokine secretion (IL-1β) in cells post asbestos exposure, female C57/Bl6 mice were injected with 2 mL of thioglycollate and peritoneal macrophages harvested after 3 days 2 million cells per well were plated in a 6 well plate and exposed to 20 μg/cm^2 asbestos. Cells were treated with 25 or 50 μM SDG (synthetic SDG) 3, 4, 6, or 8 hours post-asbestos exposure. Cells were harvested 24 hours post-asbestos exposure. Analysis performed on fresh supernatant samples.
as §2, with “(TNF-α)” for “(IL-1β)”, “55A-55B).” for “54A-54B).”, “days.” for “days”, “Cells were harvested 24 hours post-asbestos exposure. Analysis performed on fresh supernatant samples.” left out

[2] = tested on: human epithelial cells; assay: BaP-induced genotoxic stress (p53 protein levels); type: cell-based; conditions: SDG 5, 10, 25 and 50 μM
From the text: (§3) Similarly, SDG prevents genotoxic stress in human epithelial cells exposed to BaP. Exposure of cells to a potent carcinogen such as BaP, induces genotoxic stress as indicated by increased levels of p53 protein (FIG. 25). […] SDG also prevents oxidative DNA damages in human epithelial cells exposed to BaP. Exposure of cells to a potent carcinogen such as BaP, induces oxidative DNA damage as indicated by increased levels of gamma-H2AX, a marker for double-stranded DNA breaks (FIG. 26). […] Furthermore, SDG prevents DNA adduct formation in human epithelial cells exposed to BaP. Exposure of cells to a potent carcinogen such as BaP, induces the formation of DNA adducts (FIG. 27). DNA adducts are pieces of DNA covalently linked to a carcinogen and is directly linked to the development of malignancy. The DNA adduct levels is decreased by the presence of SDG or its metabolites ED and EL given alone or in combination.

[3] = γ-Radiation-induced chlorination of 2-AP
From the text: 2-AP in PBS was exposed to hypochlorite and fluorescence spectra recorded between 360-390 nm with the emission maximum at 374 nm. The % change in 2-AP calculated.
To determine whether radiation induces nucleobase chlorination, we used the same system as above, namely 2-AP fluorescence (FIG. 19A).

[4] = tested on: murine primary lung cells (epithelial cells, endothelial cells and fibroblasts); assay: Clonogenic survival of irradiated primary lung cells; type: cell-based, mouse
Method: (§4) Fibroblasts and endothelial cells were isolated from C57/bl6 mouse. For fibroblast isolation, mouse lungs were harvested, minced, and incubated with dispase (2 mg/ml) for 45 minutes. Pieces were plated out and fibroblasts were cultured as described previously and used between passages 3 and 10. Pulmonary microvascular endothelial cells (PMVEC) were isolated from murine lungs as described previously. Briefly, freshly harvested mouse lungs were treated with collagenase followed by isolation of cells by adherence to magnetic beads coated with mAb to platelet endothelial cell adhesion molecule (PECAM). Epithelial cells (C10) cells were originally derived from a normal BALB/c mouse lung explant and are non-tumorigenic, contact-inhibited, and have alveolar type 2 cell features at early passage.
Exponentially growing cells were plated as single cells and incubated overnight. Cells were treated with various doses of the lignan SDG (10-50 μM) 6 h prior to irradiation (2, 4, 6 and 8 Gy). Lignan dose was selected based on animal studies to be within the physiological levels reached in the blood circulation when 10% Flaxseed is ingested. Cells were irradiated with a Mark 1 cesium (Cs-137) irradiator (J. L. Shepherd, San Fernando, Calif.) at a dose rate of 1.7 Gy/min Colonies were stained and counted 10 to 15 days after irradiation and surviving fraction was calculated.

[5] = tested on: murine primary lung fibroblasts; assay: γ-H2AX foci immunostaining, fibroblasts; type: cell-based, mouse; conditions: SDG 50 μM 6 h prior IR; 2 Gy; irradiated control 30.0% at 30 min
Method: as §4
For immunostaining of γ-H2AX, cells were plated on glass coverslips (5,000 cells/coverslip), pre-treated (6 h) with 50 μM SDG and irradiated (2 Gy). At desired time interval, cells were fixed (4% para-formaldehyde), washed and blocked with PBST (PBS+0.1% TritonX-100 containing 5% goat serum, 1% BSA). Cells were incubated with γ-H2AX primary antibody (1:200) overnight at 4° C. followed by washing with PBST (3×5 min) and incubation with secondary antibody (Alexa Fluor® 488, Invitrogen, Calif., USA) for 1 hr at RT. Nuclei were counterstained with DAPI and visualized under fluorescence microscope.

[6] = tested on: human epithelial cells; assay: BaP-induced oxidative DNA damage (gamma-H2AX levels); type: cell-based; conditions: SDG 5, 10, 25, 50 and 100 μM
From the text: as §3

[7] = tested on: human epithelial cells (A549); assay: BaP-induced oxidative DNA damage (8-oxo-dGuo, mass spectrometry); type: cell-based; conditions: SDG 10 μM; 25 μM BaP; 3 and 6 hours post carcinogen exposure

COc1cc(C[C@@H](CO[C@@H]2O[C@H](CO)[C@@H](O)[C@H](O)[C@H]2O)[C@H](CO[C@@H]2O[C@H](CO)[C@@H](O)[C@H](O)[C@H]2O)Cc2ccc(O)c(OC)c2)ccc1O [SDG, secoisolariciresinol diglucoside]
IL-1β levels [1]: significantly decreased | Malondialdehyde (MDA) levels, lipid peroxidation [1]: significantly decreased | Nitrite, marker for nitrosative stress [1]: significantly decreased | TNF-α levels [1]: significantly decreased | p53 protein levels (genotoxic stress) [2]: mitigated dose-dependently | γ-radiation-induced decrease in 2-AP fluorescence intensity [3]: prevented | Colony forming ability, compound alone ([4]; SDG 10-50 μM alone, all three cell types, vs untreated control): did not elicit any adverse effect | Surviving fraction ([4]; SDG prior to irradiation, epithelial and endothelial cells (FIGS. 7A, 7B)): enhanced significantly | SDG concentration giving maximum protection against radiation-induced loss in clonogenicity ([4]; fibroblasts, 6 h pre-treatment): 50 µM | γ-H2AX positive cells [5]: 22.1%±1.9 | gamma-H2AX levels [6]: mitigated dose-dependently | Oxidative DNA damage (8-oxo-dGuo) [7]: decreased DNA damage
